Reference: patent US20220249597A1, “MIF INHIBITORS AND METHODS OF USE THEREOF” (The Johns Hopkins University, priority 2016, published 2022)
{Biotin} = biotin label

molecular target: T1, MIF (Homo sapiens, UniProt P14174); assay: Electrophoretic mobility shift assay (EMSA) of MIF with biotin-labeled DNA substrates; assay type: binding; design: GST (N, cleaved yes); made in house; host or cells: Escherichia coli; details: 5′ biotin labeled single stranded substrates, 10 mM Mg2+
T1 sequence (P14174 2-115 limits assumed): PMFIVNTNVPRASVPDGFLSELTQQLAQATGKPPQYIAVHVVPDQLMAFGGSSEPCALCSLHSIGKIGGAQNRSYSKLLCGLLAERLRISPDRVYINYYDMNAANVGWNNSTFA
Procedure: EMSA assay was performed using LightShift Chemiluminescent EMSA kit (Thermo Scientific) following the manufactures instruction. Briefly, purified MIF protein (2 μM) was incubated with biotin-labeled DNA substrates (10 nM) in the binding buffer containing 10 mM MgCl2 for 30 min on ice. Then samples were separated on 6% retardation polyacrylamide followed by electrophoretic transfer to nylon membrane.
(§1) Human endoG (NM_004435), cyclophilin A (NM_021130), mouse AIF (NM_012019), human MIF (NM_002415) cDNA and their variants were subcloned into glutathione S-transferase (GST)-tagged pGex-6P-1 vector (GE Healthcare) by EcoRI and XhoI restriction sites and verified by sequencing. The protein was expressed and purified from Escherichia coli by glutathione Sepharose. The GST tag was subsequently proteolytically removed for the nuclease assay. MIF point mutants were constructed by polymerase chain reaction (PCR) and verified by sequencing. The purity of MIF proteins that were used in the nuclease assays was further confirmed by mass spectrometry. MIF proteins purified by FPLC were also used in the nuclease assays and no obvious difference was observed between FPLC MIF and non-FPLC MIF proteins. GST protein was used as a negative control in the nuclease assay.

Substance | MIF binding to ssDNA substrate (DNA/MIF complex formation)
3F1: 5′ biotin ssDNA MIF substrate, SEQ ID NO: 12 (DNA AAAAAAAAAACAAGTAGCTGGGATTACAGG; DNA, 5' {Biotin}, backbone and methylation of C not given here) | clearly binds
L3: 5′ biotin non-related sequence with stem loop like structure, SEQ ID NO: 13 (DNA ACCTAAATGCTAGAGCTCGCTGATCAGCCT; DNA, 5' {Biotin}, backbone and methylation of C not given here) | weakly binds
LF: 5′ biotin ssDNA MIF substrate, SEQ ID NO: 7 (DNA AAAAAAACTCAGCCTCCCAAGTAGCTGGGA; DNA, 5' {Biotin}, backbone and methylation of C not given here) | no obvious effect on the DNA/MIF complex formation

molecular target: T1, MIF; assay: MIF nuclease assay with small DNA substrates; assay type: biochemical; design: GST (N, cleaved yes); made in house; host or cells: Escherichia coli; key to Endo-Nuclease Activity / Exo-Nuclease Activity: Y:yes; N:no; details: MIF on the listed DNA substrate
Source text: as §1

Substance | Endo-Nuclease Activity | Exo-Nuclease Activity
3F1: 5′ biotin ssDNA MIF substrate, SEQ ID NO: 12 (DNA AAAAAAAAAACAAGTAGCTGGGATTACAGG; DNA, 5' {Biotin}, backbone and methylation of C not given here) | Y | Y
BS2: 5′ biotin ssDNA MIF substrate, SEQ ID NO: 96 (DNA TGGGATTACAGGCGTGAGCCACCACGCCC; DNA, 5' {Biotin}, backbone and methylation of C not given here) | Y | Y
L3: 5′ biotin non-related sequence with stem loop like structure, SEQ ID NO: 13 (DNA ACCTAAATGCTAGAGCTCGCTGATCAGCCT; DNA, 5' {Biotin}, backbone and methylation of C not given here) | Y | Y
LF: 5′ biotin ssDNA MIF substrate, SEQ ID NO: 7 (DNA AAAAAAACTCAGCCTCCCAAGTAGCTGGGA; DNA, 5' {Biotin}, backbone and methylation of C not given here) | N | N
SL: 5′ biotin ssDNA MIF substrate, SEQ ID NO: 6 (DNA CCTGTAATCCCAAGTAGCTGGGATTACAGG; DNA, 5' {Biotin}, backbone and methylation of C not given here) | N | N
m2: 5′ biotin ssDNA MIF substrate, SEQ ID NO: 79 (DNA CTCAGCCTCCAAAAAAAAAAGGATTACAGG; DNA, 5' {Biotin}, backbone and methylation of C not given here) | Y | Y
m3: 5′ biotin ssDNA MIF substrate, SEQ ID NO: 80 (DNA CTCAGCCTCCCAAGTAGCTGAAAAAAAAAA; DNA, 5' {Biotin}, backbone and methylation of C not given here) | Y | Y
m4: 5′ biotin ssDNA MIF substrate, SEQ ID NO: 81 (DNA CTCAGCCAAAAAAATAGCTGGGATTACAGG; DNA, 5' {Biotin}, backbone and methylation of C not given here) | Y | Y
m5: 5′ biotin ssDNA MIF substrate, SEQ ID NO: 82 (DNA CTCAGCCTCCCAAAAAAAAGGGATTACAGG; DNA, 5' {Biotin}, backbone and methylation of C not given here) | Y | Y
m6: 5′ biotin ssDNA MIF substrate, SEQ ID NO: 83 (DNA CTCAAAAAAACAAGTAGCTGGGATTACAGG; DNA, 5' {Biotin}, backbone and methylation of C not given here) | Y | Y
m7: 5′ biotin ssDNA MIF substrate, SEQ ID NO: 84 (DNA AAAAGCCTCCCAAGTAGCTGGGATTACAGG; DNA, 5' {Biotin}, backbone and methylation of C not given here) | Y | Y
m8: 5′ biotin ssDNA MIF substrate, SEQ ID NO: 85 (DNA CTCAAAATCCCAAAAAAAAGGGATTACAGG; DNA, 5' {Biotin}, backbone and methylation of C not given here) | Y | Y
m9: 5′ biotin ssDNA MIF substrate, SEQ ID NO: 86 (DNA CAAGTAGCTGCTCAGCCTCCGGATTACAGG; DNA, 5' {Biotin}, backbone and methylation of C not given here) | Y | Y
m10: 5′ biotin ssDNA MIF substrate, SEQ ID NO: 87 (DNA CTCAGCCTCCGGATTACAGGCAAGTAGCTG; DNA, 5' {Biotin}, backbone and methylation of C not given here) | Y | Y
m11: 5′ biotin ssDNA MIF substrate, SEQ ID NO: 88 (DNA CTCAGCCTCCCAAGTAAAAGGGATTACAGG; DNA, 5' {Biotin}, backbone and methylation of C not given here) | Y | Y
m12: 5′ biotin ssDNA MIF substrate, SEQ ID NO: 89 (DNA CTCAGCCTCCCAAGTAAATGGGATTACAGG; DNA, 5' {Biotin}, backbone and methylation of C not given here) | Y | Y
m14: 5′ biotin ssDNA MIF substrate, SEQ ID NO: 90 (DNA CTCAGCCTCCCAAGTAAACGGGATTACAGG; DNA, 5' {Biotin}, backbone and methylation of C not given here) | Y | Y
m15: 5′ biotin ssDNA MIF substrate, SEQ ID NO: 91 (DNA CTCAGCCTCCCAAGTAGCAGGGATTACAGG; DNA, 5' {Biotin}, backbone and methylation of C not given here) | Y | Y
m16: 5′ biotin ssDNA MIF substrate, SEQ ID NO: 92 (DNA CTCAGCCTCCCTTGTAGCTGGGATTACAGG; DNA, 5' {Biotin}, backbone and methylation of C not given here) | Y | Y
m17: 5′ biotin ssDNA MIF substrate, SEQ ID NO: 93 (DNA CTCAAAATCCCAAGTAGCTGGGATTACAGG; DNA, 5' {Biotin}, backbone and methylation of C not given here) | Y | Y
m18: 5′ biotin ssDNA MIF substrate, SEQ ID NO: 94 (DNA CTCAATTTCCCAAGTAGCTGGGATTACAGG; DNA, 5' {Biotin}, backbone and methylation of C not given here) | Y | Y
m20: 5′ biotin ssDNA MIF substrate, SEQ ID NO: 95 (DNA AAAAATCTCAGCCTCCCAAGTAGCTGGGAT; DNA, 5' {Biotin}, backbone and methylation of C not given here) | Y | Y

same assay, conditions: single or double stranded substrates; ds substrates MIF 1-4 μM

Substance | MIF cleavage of DNA substrate
L3: 5′ biotin non-related sequence with stem loop like structure, SEQ ID NO: 13 (DNA ACCTAAATGCTAGAGCTCGCTGATCAGCCT; DNA, 5' {Biotin}, backbone and methylation of C not given here) | cleaved by MIF, but with less efficiency
